ChEMBL document CHEMBL6178005, “Novel Nonpeptide as Oxytocin Receptor Agonist” (ACS Med Chem Lett, 2025)

Biological target: Vasopressin V1a receptor (Homo sapiens, UniProt P37288)
Test: Antagonist activity at vasopressin V1A receptor (unknown origin) assessed as calcium level
Format: functional

Sequence of Vasopressin V1a receptor (P37288 whole entry): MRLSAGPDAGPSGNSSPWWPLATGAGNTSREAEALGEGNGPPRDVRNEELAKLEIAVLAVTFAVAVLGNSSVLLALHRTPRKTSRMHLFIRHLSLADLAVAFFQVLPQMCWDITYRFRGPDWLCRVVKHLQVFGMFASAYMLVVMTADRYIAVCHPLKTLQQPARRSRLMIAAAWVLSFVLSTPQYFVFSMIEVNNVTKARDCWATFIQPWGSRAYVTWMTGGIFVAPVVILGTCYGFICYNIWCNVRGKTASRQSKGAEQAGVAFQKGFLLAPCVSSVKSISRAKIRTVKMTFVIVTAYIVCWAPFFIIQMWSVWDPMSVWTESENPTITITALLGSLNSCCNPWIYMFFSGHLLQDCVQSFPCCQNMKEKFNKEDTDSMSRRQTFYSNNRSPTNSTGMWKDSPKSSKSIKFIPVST

| SMILES | IC50 [nM] |
| --- | --- |
| Cc1cc(C(=O)N2Cc3cnn(C)c3Nc3ccccc32)ccc1CNC(=O)N1C[C@H](OCc2cc(O)cc(O)c2)C[C@H]1C(=S)N(C)C | 2430 |
| Cc1cc(C(=O)N2Cc3cnn(C)c3Nc3ccccc32)ccc1CNC(=O)N1C[C@H](OCCO)C[C@H]1C(=S)N(C)C | 585 |
